Like-named read-outs stand apart in the source and are kept apart here.
Key:
IDE [1] = molecular target: T1, IDE (Homo sapiens (Human), UniProt P14735); test: In vitro protease assay with IDE (cleavage of fluorophore-quencher substrate peptide); format: biochemical; settings: for potency of trans-olefin isomer relative to corresponding cis-olefin isomer: trans vs cis isomer, IDE inhibition; for activity / potency against IDE (in words): derivatives compared with 6b
Method: Protease assays with IDE and neprilysin were performed using Mca-RPPGFSAFK(Dnp)-OH substrate peptide (R&D Systems, SEQ ID NO: 6) and purified recombinant human IDE and recombinant human neprilysin (R&D Systems) according to the manufacturer's instructions. For IDE, 2 μL of small molecule dissolved in DMSO was combined with 48 μL 0.2 μg/mL IDE in IDE assay buffer (50 mM Tris, 1 M NaCl, pH 7.5). 50 μL of 20 μM substrate peptide in IDE assay buffer was then added to initiate the reaction, and peptide cleavage was monitored on a fluorescent plate reader (excitation=320 nm; emission=405 nm) for 5 minutes. The above protocol was also used for assaying neprilysin activity, substituting the neprilysin assay buffer (50 mM Tris, 0.05% Brij-35, pH 9.0).
Compounds were synthesized as described previously;^9 in most cases the macrocycle synthesis yielded two isomers corresponding to the cis and trans olefins generated after macrocyclization. Macrocycles were assayed for IDE inhibition by monitoring cleavage of a substrate peptide^13 containing a fluorophore-quencher pair such that cleavage of the model substrate results in increased fluorescence.

IDE [2] = molecular target: T1, IDE; test: In vitro selection of DNA-templated macrocycle library against immobilized IDE; format: binding
Method: Selections of the DNA-templated library were performed as described previously.^9 20 μg of IDE was immobilized on 30 μL of Dynabeads His-Tag Isolation and Pulldown (Invitrogen) magnetic particles according to the manufacturer's instructions. Elution of captured DNA-library members was performed by incubating the protein-loaded particles with 200 mM imidazole. Prior to PCR amplification, imidazole was removed from the eluted samples by gel filtration using Princeton Separations Sephadex minicolumns.
Insulin-degrading enzyme (IDE) protein was obtained in its purified form with a poly-histidine tag and immobilized on magnetic particles coated with cobalt. After incubation with the DNA-templated library, non-binding library members were washed away with buffer, and protein-library member complexes were eluted from resin with imidazole (FIG. 1). DNA-templated library members enriched after target selection were PCR amplified with target-specific barcoded primers that appended adaptors required for Illumina high-throughput DNA sequencing. We performed two independent selection replicates with IDE and three independent selections against empty resin as negative control selections. These five barcoded selection PCR amplicons were pooled in equimolar quantities and submitted for Illumina high-throughput DNA sequencing. High-throughput sequencing yielded 19 million sequence reads—an average of ˜3.8 million sequence reads per selection.
After one round of in vitro selection, we identified DNA sequences corresponding to macrocycles A12-B8-C11-D5 (3), A12-B8-C5-D5 (5), A12-B8-C6-D5 (6) and A12-B8-C8-D5 (2) enriched between 4- to 14-fold against IDE (FIG. 2a, IDE selection 1); these same macrocycles were also enriched 3- to 6-fold in a replicate IDE selection (FIG. 2a, IDE selection 2).

recombinant human THOP1 = recombinant human THOP1 (Homo sapiens (Human), UniProt P52888); test: In vitro protease assay with THOP1; format: biochemical
Method: (§1) Protease assays with THOP1 and NLN were performed using MCA-Pro-Leu-Gly-Pro-D-Lys(DNP)-OH (Bachem, SEQ ID NO: 7) and purified recombinant human THOP1 and NLN (R&D Systems) according to the manufacturer's instructions.

recombinant human NLN = recombinant human NLN (Homo sapiens (Human), UniProt Q9BYT8); test: In vitro protease assay with NLN; format: biochemical
Method: as §1

[3] = Biodistribution assay (LC-MS of brain, pancreas, plasma after IP injection); format: in vivo, mouse; settings: mice, 45 minutes after intraperitoneal injection
Method: Macrocycles were diluted to 0.1 mg/mL or 1 mg/mL in PBS and IP-injected into a mouse to produce a concentration of 1 mg/kg or 10 mg/kg, respectively. After 45 minutes, organs were harvested, and the small-molecule fractions were extracted into a 2:1:1 mixture of chloroform:methanol:water. Samples were evaporated under a stream of nitrogen, resuspended in 100 μL of chloroform and subjected to LC-MS analysis.
The tissue distribution of enriched macrocycles after i.p. injection was examined. […] Briefly, compounds were injected at different concentrations intraperitoneally into mice, and plasma, brain, and pancreas were harvested after 45 minutes. Vehicle-only injections were performed as negative controls. We determined the relative amount of macrocycle present by extracting the organs with organic solvents and quantifying the amount of compound present by LC-MS analysis.

plasma IDE activity = plasma IDE activity (Mus musculus (Mouse), UniProt Q9JHR7); test: Plasma IDE activity in mice injected with inhibitor; format: in vivo; settings: 60 min after 10 mg/kg, 20 mg/kg, or 40 mg/kg i.p. injection, vs vehicle
Method: Finally, we compared plasma IDE activity in mice injected with 6b with plasma IDE activity in control mice injected with vehicle alone (18:1:1, saline:DMSO:Tween-80). Plasma IDE activity 60 min after 10 mg/kg, 20 mg/kg, or 40 mg/kg i.p. injection of 6b was inhibited by ≧90% (FIG. 9).

IDE [4] = molecular target: T1, IDE; test: Yonetani-Theorell double inhibition of IDE; format: biochemical; settings: varying concentrations of both 6b and Ii1
Description: The lack of obvious structural relationship between 6b and known IDE substrates, together with its excellent selectivity profile, raised the possibility that 6b may inhibit IDE by binding an allosteric site, rather than the active site. To test this possibility, we assayed IDE in vitro in the presence of varying concentrations of both 6b and Ii1.

[5] = molecular target: recombinant human neprilysin (Homo sapiens (Human), UniProt P08473); test: In vitro protease assay with neprilysin; settings: even when assayed at 100 μM
trypsin = test: Trypsin activity assay (Z-Arg-AMC substrate); settings: even when assayed at 100 μM
[6] = Preliminary pharmacokinetics after i.p. injection (LC-MS quantitation in plasma); settings: mice, 20 mg/kg i.p.
Solubility = format: physicochemical
[7] = fluorophore-quencher model peptide

Sequence of recombinant human NLN (Q9BYT8 38-704): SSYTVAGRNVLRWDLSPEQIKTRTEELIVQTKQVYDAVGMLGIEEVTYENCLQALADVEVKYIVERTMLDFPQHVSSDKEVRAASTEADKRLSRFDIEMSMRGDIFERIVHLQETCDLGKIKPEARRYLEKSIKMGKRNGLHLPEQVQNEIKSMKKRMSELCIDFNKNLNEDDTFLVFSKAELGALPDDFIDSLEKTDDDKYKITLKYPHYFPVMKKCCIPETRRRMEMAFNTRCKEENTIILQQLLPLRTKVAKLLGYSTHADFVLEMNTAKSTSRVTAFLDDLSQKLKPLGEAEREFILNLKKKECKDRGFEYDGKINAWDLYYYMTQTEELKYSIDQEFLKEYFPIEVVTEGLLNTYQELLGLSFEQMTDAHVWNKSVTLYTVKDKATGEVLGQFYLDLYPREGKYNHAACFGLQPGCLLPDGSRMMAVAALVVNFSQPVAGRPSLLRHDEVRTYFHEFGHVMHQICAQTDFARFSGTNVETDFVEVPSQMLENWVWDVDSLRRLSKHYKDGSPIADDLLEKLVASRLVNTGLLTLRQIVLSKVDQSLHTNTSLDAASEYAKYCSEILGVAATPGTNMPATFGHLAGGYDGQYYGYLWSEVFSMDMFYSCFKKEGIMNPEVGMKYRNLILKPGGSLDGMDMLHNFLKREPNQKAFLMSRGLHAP
Sequence of recombinant human THOP1 (P52888 whole entry): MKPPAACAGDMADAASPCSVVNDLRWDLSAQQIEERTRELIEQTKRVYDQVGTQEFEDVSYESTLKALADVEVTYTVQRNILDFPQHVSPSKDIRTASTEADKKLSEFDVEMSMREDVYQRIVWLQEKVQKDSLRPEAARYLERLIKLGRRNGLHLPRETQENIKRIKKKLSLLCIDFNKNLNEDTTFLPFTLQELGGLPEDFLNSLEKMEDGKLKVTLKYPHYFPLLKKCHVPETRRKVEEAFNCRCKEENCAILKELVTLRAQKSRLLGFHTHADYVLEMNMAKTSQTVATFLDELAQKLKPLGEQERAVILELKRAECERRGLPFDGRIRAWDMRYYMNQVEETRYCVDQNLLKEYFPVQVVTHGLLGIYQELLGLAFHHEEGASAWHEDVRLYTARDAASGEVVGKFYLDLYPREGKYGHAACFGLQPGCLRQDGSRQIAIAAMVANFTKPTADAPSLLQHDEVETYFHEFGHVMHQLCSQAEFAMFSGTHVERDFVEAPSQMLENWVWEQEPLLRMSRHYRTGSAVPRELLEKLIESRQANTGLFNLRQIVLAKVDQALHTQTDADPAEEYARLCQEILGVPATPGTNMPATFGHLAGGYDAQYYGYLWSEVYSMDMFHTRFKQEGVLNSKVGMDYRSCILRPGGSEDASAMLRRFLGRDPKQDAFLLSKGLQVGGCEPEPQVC
T1 sequence (P14735 whole entry): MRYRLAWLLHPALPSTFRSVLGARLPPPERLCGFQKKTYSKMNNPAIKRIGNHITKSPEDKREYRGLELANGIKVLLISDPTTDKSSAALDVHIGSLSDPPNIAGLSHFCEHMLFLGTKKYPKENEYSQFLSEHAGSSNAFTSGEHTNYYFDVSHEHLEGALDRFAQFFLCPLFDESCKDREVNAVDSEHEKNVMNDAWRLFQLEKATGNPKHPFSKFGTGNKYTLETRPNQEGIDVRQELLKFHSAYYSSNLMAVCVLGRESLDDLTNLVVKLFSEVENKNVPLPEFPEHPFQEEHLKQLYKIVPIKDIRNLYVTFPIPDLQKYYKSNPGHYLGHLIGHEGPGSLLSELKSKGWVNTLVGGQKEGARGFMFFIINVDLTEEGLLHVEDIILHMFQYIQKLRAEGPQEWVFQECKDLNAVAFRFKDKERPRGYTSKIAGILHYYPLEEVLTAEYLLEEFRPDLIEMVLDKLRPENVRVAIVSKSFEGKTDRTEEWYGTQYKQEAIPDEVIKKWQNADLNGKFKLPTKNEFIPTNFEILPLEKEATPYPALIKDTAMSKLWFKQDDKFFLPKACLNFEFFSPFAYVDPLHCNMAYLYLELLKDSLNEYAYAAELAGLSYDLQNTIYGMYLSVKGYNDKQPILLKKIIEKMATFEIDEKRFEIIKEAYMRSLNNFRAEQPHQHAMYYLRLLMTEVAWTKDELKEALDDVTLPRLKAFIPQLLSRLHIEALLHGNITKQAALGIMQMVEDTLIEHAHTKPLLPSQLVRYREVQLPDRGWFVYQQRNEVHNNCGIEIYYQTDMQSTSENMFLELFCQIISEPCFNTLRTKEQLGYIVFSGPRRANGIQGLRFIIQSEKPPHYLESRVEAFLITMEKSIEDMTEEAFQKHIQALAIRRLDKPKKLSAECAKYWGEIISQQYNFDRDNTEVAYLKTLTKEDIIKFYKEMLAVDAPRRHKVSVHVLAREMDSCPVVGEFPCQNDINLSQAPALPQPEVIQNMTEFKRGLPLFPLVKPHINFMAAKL
Sequence of recombinant human neprilysin (P08473 whole entry): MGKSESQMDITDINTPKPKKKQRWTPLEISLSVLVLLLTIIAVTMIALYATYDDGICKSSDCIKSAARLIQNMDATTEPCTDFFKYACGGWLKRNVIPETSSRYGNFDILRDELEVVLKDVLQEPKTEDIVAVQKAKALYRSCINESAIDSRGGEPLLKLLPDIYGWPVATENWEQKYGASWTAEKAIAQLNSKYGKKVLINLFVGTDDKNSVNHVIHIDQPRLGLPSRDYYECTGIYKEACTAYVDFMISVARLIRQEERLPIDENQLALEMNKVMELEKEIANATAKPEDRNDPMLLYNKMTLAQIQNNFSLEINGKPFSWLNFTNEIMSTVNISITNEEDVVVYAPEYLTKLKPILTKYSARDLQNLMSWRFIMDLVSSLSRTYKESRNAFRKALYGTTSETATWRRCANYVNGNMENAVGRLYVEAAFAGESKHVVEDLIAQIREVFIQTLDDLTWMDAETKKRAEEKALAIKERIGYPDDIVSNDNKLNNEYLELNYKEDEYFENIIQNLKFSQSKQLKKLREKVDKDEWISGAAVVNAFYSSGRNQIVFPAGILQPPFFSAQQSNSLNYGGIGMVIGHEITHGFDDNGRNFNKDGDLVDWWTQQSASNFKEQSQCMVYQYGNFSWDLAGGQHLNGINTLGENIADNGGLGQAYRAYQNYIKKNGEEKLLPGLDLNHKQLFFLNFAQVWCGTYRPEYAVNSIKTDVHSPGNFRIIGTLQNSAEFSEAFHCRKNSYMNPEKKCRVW
Sequence of plasma IDE activity (Q9JHR7 other isoform, or with tags, fused parts or gaps): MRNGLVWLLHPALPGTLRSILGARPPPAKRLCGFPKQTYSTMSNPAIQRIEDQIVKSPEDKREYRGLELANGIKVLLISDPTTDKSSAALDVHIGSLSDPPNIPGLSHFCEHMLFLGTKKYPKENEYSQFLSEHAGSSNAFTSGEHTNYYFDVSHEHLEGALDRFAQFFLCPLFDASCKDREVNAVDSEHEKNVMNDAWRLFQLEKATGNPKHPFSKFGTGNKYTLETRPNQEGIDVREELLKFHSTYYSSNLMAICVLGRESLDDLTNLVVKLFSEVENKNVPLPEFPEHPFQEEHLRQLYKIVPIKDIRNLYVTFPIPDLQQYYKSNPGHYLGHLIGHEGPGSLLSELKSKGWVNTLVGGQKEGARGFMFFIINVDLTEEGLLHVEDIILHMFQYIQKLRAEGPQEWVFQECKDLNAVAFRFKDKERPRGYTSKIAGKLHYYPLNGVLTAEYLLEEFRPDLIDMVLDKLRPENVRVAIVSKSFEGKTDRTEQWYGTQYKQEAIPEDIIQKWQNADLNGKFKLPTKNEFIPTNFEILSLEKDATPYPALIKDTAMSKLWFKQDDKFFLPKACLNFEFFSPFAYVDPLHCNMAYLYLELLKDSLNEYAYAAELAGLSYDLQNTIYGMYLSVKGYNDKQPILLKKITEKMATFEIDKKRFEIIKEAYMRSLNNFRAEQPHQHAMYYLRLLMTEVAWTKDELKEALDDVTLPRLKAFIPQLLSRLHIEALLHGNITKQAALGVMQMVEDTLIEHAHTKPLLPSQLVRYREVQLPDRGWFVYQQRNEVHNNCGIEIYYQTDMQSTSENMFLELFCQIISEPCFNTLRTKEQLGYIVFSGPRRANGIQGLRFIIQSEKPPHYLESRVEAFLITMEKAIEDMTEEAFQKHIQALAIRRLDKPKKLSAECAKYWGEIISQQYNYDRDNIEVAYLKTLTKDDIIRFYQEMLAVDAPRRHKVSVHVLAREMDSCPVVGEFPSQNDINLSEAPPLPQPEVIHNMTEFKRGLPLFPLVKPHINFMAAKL

Q: For NC(=O)C1CCCCNC(=O)C(Cc2ccc(C(=O)c3ccccc3)cc2)NC(=O)C(CC2CCCCC2)NC(=O)CC(O)C(CC2CCCCC2)NC(=O)C=CC(=O)N1 (mixture of isomers) [Compound 3], which “potency of trans-olefin isomer relative to corresponding cis-olefin isomer” value (IDE [1]) is on record?
A: The value was over 10 fold.

Q: What about the “enrichment against IDE” value (IDE [2]; IDE selection 1, one round) of the same molecule?
A: Its value is 4- to 14 fold.

Q: What about the “enrichment against IDE” value (IDE [2]; replicate IDE selection 2) of the same molecule?
A: Its value is 3- to 6 fold.

Q: With NC(=O)C1CCCCNC(=O)CNC(=O)C(CC2CCCCC2)NC(=O)CC(O)C(CC2CCCCC2)NC(=O)C=CC(=O)N1 (mixture of isomers) [Compound 4] as the molecule, how does the “activity / potency against IDE (in words)” value (IDE [1]) read?
A: Its value is “inactive”.

Q: What about the “enrichment against IDE (in words)” value (IDE [2]) of the same molecule?
A: The value was “less strongly enriched”.

Q: Which results are given for NC(=O)C1CCCCNC(=O)C(Cc2ccc(C(=O)c3ccccc3)cc2)NC(=O)C(CC2CCCCC2)NC(=O)C(CC2CC2)NC(=O)C=CC(=O)N1 (mixture of isomers) [Compound 5]?
A: potency of trans-olefin isomer relative to corresponding cis-olefin isomer (IDE [1]): > 10 fold; enrichment against IDE (IDE [2]; IDE selection 1, one round): 4- to 14 fold; enrichment against IDE (IDE [2]; replicate IDE selection 2): 3- to 6 fold

Q: For NC(=O)CCC1NC(=O)C=CC(=O)NC(C(N)=O)CCCCNC(=O)C(Cc2ccc(C(=O)c3ccccc3)cc2)NC(=O)C(CC2CCCCC2)NC1=O (mixture of isomers) [Compound 6], which “potency of trans-olefin isomer relative to corresponding cis-olefin isomer” value (IDE [1]) is on record?
A: Its value is over 10 fold.

Q: What about the “enrichment against IDE” value (IDE [2]; IDE selection 1, one round) of the same molecule?
A: Its value is 4- to 14 fold.

Q: What about the “enrichment against IDE” value (IDE [2]; replicate IDE selection 2) of the same molecule?
A: Its value is 3- to 6 fold.

Q: For NC(=O)CCC1NC(=O)C=CC(=O)NC(C(N)=O)CCCCNC(=O)CNC(=O)C(CC2CCCCC2)NC1=O (centres unmarked) [Compound 1], which “activity / potency against IDE (in words)” value (IDE [1]) is on record?
A: Its value is “inactive”.

Q: What about the IC50 (IDE [1]; [7]) of the same molecule?
A: The IC50 was over 100000 nM.

Q: And the “enrichment against IDE (in words)” value (IDE [2])?
A: Its value is “less strongly enriched”.

Q: Which results are given for N=C(N)NCCCC1NC(=O)C=CC(=O)NC(C(N)=O)CCCCNC(=O)C(Cc2ccc(C(=O)c3ccccc3)cc2)NC(=O)C(CC2CCCCC2)NC1=O (centres unmarked) [Compound 2]?
A: IC50 (IDE [1]; [7]): 10000 nM; enrichment against IDE (IDE [2]; IDE selection 1, one round): 4- to 14 fold; enrichment against IDE (IDE [2]; replicate IDE selection 2): 3- to 6 fold

Q: Which IC50 (IDE [1]; [7]) does the source give for NC(=O)C1CCCCNC(=O)C(Cc2ccc(C(=O)c3ccccc3)cc2)NC(=O)C(CC2CCCCC2)NC(=O)CC(O)C(CC2CCCCC2)NC(=O)C=CC(=O)N1 (centres unmarked) [Compound 3a] here?
A: Its IC50 is over 20000 nM.

Q: With NC(=O)C1CCCCNC(=O)C(Cc2ccc(C(=O)c3ccccc3)cc2)NC(=O)C(CC2CCCCC2)NC(=O)CC(O)C(CC2CCCCC2)NC(=O)C=CC(=O)N1 (centres unmarked) [Compound 3b] as the molecule, how does the IC50 (IDE [1]; [7]) read?
A: The IC50 was 1500 nM.

Q: With NC(=O)C1CCCCNC(=O)CNC(=O)C(CC2CCCCC2)NC(=O)CC(O)C(CC2CCCCC2)NC(=O)C=CC(=O)N1 (centres unmarked) [Compound 4a] as the molecule, how does the IC50 (IDE [1]; [7]) read?
A: Its IC50 is over 100000 nM.

Q: Which IC50 (IDE [1]; [7]) does the source give for NC(=O)C1CCCCNC(=O)C(Cc2ccc(C(=O)c3ccccc3)cc2)NC(=O)C(CC2CCCCC2)NC(=O)C(CC2CC2)NC(=O)C=CC(=O)N1 (centres unmarked) [Compound 5a] here?
A: The IC50 was over 20000 nM.

Q: With NC(=O)C1CCCCNC(=O)C(Cc2ccc(C(=O)c3ccccc3)cc2)NC(=O)C(CC2CCCCC2)NC(=O)C(CC2CC2)NC(=O)C=CC(=O)N1 (centres unmarked) [Compound 5b] as the molecule, how does the IC50 (IDE [1]; [7]) read?
A: The IC50 was 1000 nM.

Q: Which IC50 (IDE [1]; [7]) does the source give for NC(=O)CCC1NC(=O)C=CC(=O)NC(C(N)=O)CCCCNC(=O)C(Cc2ccc(C(=O)c3ccccc3)cc2)NC(=O)C(CC2CCCCC2)NC1=O (centres unmarked) [Compound 6a] here?
A: Its IC50 is 5600 nM.

Q: What does the source list for NC(=O)CCC1NC(=O)C=CC(=O)NC(C(N)=O)CCCCNC(=O)C(Cc2ccc(C(=O)c3ccccc3)cc2)NC(=O)C(CC2CCCCC2)NC1=O (centres unmarked) [Compound 6b]?
A: IC50 (IDE [1]): 140 nM; IC50 (IDE [1]; [7]): 60 nM; activation of THOP1 (recombinant human THOP1; at higher concentrations): Slight activation; inhibition of thimet oligopeptidase (THOP1) (recombinant human THOP1; even when assayed at 100 μM): failed to demonstrate any significant inhibition; activation of NLN (recombinant human NLN; at higher concentrations): Slight activation; inhibition of neurolysin (NLN) (recombinant human NLN; even when assayed at 100 μM): failed to demonstrate any significant inhibition; detection in brain [3]: none of the three compounds could be detected; detection in pancreas [3]: could be detected; detection in plasma [3]: could be detected; macrocycle concentration in plasma (comparison) [3]: comparable; inhibition of plasma IDE activity (plasma IDE activity): ≥ 90%; binding site relative to Ii1 (double inhibition plot) (IDE [4]): binding sites of Ii1 and 6b are distinct; inhibition of neprilysin (NEP) [5]: failed to demonstrate any significant inhibition; inhibition of trypsin (trypsin): failed to demonstrate any significant inhibition; time of peak blood concentration [6]: 60 min; tolerability of injections [6]: well tolerated; peak blood concentration ([6]; 18:1:1 saline:DMSO:Tween-80): 0.2 µM

Q: Which results are given for NCCCC[C@@H]1NC(=O)/C=C/C(=O)NC(C(N)=O)CCCCNC(=O)[C@@H](Cc2ccc(C(=O)c3ccccc3)cc2)NC(=O)[C@H](CC2CCCCC2)NC1=O (some centres unmarked) [Compound 20]?
A: activity / potency against IDE (in words) (IDE [1]): equipotent; solubility in water or saline (Solubility): < 100 mM

Q: With N=C(N)NCCC[C@H](NC(=O)[C@@H](CC(=O)NO)Cc1ccc2ccccc2c1)C(=O)N[C@@H](Cc1c[nH]c2ccccc12)C(=O)N[C@@H](CCC(=O)O)C(N)=O [Ii1, reference compound] as the molecule, how does the IC50 (recombinant human THOP1) read?
A: The IC50 was 6 nM.

Q: And the IC50 (recombinant human NLN)?
A: Its IC50 is 150 nM.
